Laboratory results published in the SangsterLogP compilation.

Compound	logP
CC(=O)Oc1cc(O[C@H](C)CCCc2ccccc2)cc2c1[C@@H]1C[C@H](O)CC[C@H]1[C@H](C)N2	5.7
CCCCCCC(C)(C)c1ccc(C2CC(O)CCC2CCCCO)c(O)c1 (centres undefined)	6.68
CCCCCC(C)C(C)c1cc(O)c2c(c1)OC(C)(C)C1=C2CC(C)CC1 (centres undefined)	8.3
CC(C)(C)c1ccc(C2CCCC(O)C2)c(O)c1 (centres undefined)	4.05
CCCCCc1cc(O)c2c(c1)OC(C)(C)[C@@H]1CC=C(C(=O)O)C[C@@H]21	3.51
CCCC(C)(C)c1ccc(C2CCCC(O)C2)c(O)c1 (centres undefined)	4.82
CCCCCc1cc(O)c2c(c1)OC(C)(C)[C@@H]1CCC(CO)=C[C@@H]21	5.33
CCCCCCC(C)(C)c1ccc(C2CC(O)CCC2CCCO)c(O)c1 (centres undefined)	6.13
CCCCCCC(C)(C)c1cc(O)c2c(c1)OC(C)(C)C1CCC(C=O)=CC21 (centres undefined)	8.03
CCCCCc1cc(O)c2c(c1)OC(C)(C)c1ccc(C)cc1-2	6.23
CCCCCC(C)(C)c1ccc([C@H]2CCC[C@@H](O)C2)c(O)c1	5.97
CC(=O)Oc1cc(OC(C)CCCc2ccccc2)cc2c1C1CC(O)CCC1C(C)N2C (centres undefined)	5.72
CCCCCCCCCCC(C)(C)c1ccc(C2CCCC(O)C2)c(O)c1 (centres undefined)	8.42
CCCCCCC(C)(C)c1cc(O)c2c(c1)OC(C)(C)C1CC=C(CO)CC21 (centres undefined)	7.44
CCCCCCC(C)(C)c1ccc(C2CC(O)CCC2C)c(O)c1 (centres undefined)	7.49
CCCCCCCCC(C)(C)c1ccc([C@H]2CCC[C@@H](O)C2)c(O)c1	8.16
CCCCCCC(C)(C)c1cc(O)c2c(c1)OC(C)(C)C1CC=C(C)CC21 (centres undefined)	9.96

Compound	logP
C=C1CCC2C(C1)c1c(OC)cc(CCC)cc1OC2(C)C (centres undefined)	6.26
C=C1CCC2C(C1)c1c(OC)cc(CCCCC)cc1OC2(C)C (centres undefined)	7.62
CCCCCc1cc(OCCCCN)c2c(c1)OC(C)(C)C1CC=C(C)CC21 (centres undefined)	8.38
CCCCCc1cc(O)c2c(c1)OC(C)(C)C1CC=C(C)CC21 (centres undefined)	7.41
CCCCCCC(C)(C)c1cc(O)c2c(c1)OC(C)(C)C1CCC(CO)=CC21 (centres undefined)	7.83
CCCCCCC(C)(C)c1ccc([C@@H]2C[C@H](O)C[C@@H]3CC[C@H](CO)C[C@H]32)c(O)c1	6.13
CCCCCCC(C)(C)c1ccc(C2CCCC(O)C2)c(O)c1 (centres undefined)	6.68
CCCCCc1cc(OCc2ccc(-c3ccccc3)cc2)c2c(c1)OC(C)(C)C1CC=C(C)CC21 (centres undefined)	10.9
C=C1C[C@H]2c3c(O)cc(CCCCC)cc3OC(C)(C)[C@@H]2C[C@H]1O	4.24
CCCCC(C)(C)c1ccc(C2CCCC(O)C2)c(O)c1 (centres undefined)	5.43
CCC(C)(C)c1ccc(C2CCCC(O)C2)c(O)c1 (centres undefined)	4.32
C=C1CC[C@@H]2[C@@H](C1)c1c(OCc3ccc(-c4ccccc4)cc3)cc(CCCCC)cc1OC2(C)C	11.3
CCCCCc1cc(OC)c2c(c1)OC(C)(C)[C@@H]1CC=C(C)C[C@@H]21	8.06
CC1=CCC2C(C1)c1c(O)cc(NS(C)(=O)=O)cc1OC2(C)C (centres undefined)	3.12
CCCCCc1cc(OCCCCCN2CC(=O)c3ccccc3C2=O)c2c(c1)OC(C)(C)C1CC=C(C)CC21 (centres undefined)	9.07
C=C(C)[C@@H]1CCC(C)=C[C@H]1c1c(O)cc(CCCCC)cc1O	5.79
CCCCCCCC(C)(C)c1ccc([C@H]2CCC[C@@H](O)C2)c(O)c1	7.18
